In data set [1] the test system is Huh7 human hepatocellular carcinoma cells. The data set is described as follows: Cytotoxicity of drug-loaded liposomes (MTT). The class given is cell-based. As to the method:
Huh7 human hepatocellular carcinoma cells (donation of Prof. Wanqing Liu) were cultured in RPMI-1640 medium complemented with 10% FBS, 100 U/mL penicillin, and […] streptomycin at 37° C. in a humidified 5% CO2 atmosphere. Huh7 cells were seeded in a 96 well plate at a density of 10,000 cells per well and grown to 70% confluence. Huh7 cells were exposed to free drug or liposomal preparations for 3 or 6 h. The cells were rinsed twice with fresh medium and kept in drug-free medium for 72 h. In another experiment, Huh7 cells were incubated with a free Gem, LRSG, LRHG, free Dox, LRD, blank liposomes, free drug mixture, or liposome mixture for 72 h. The medium was then removed, and 15 μL of 5 mg/mL MTT solution and 100 μL media were added to each well and incubated for 4 h at 37° C. Each well was then treated with 100 μL of stop/solubilization solution and agitated at 37° C. overnight. The absorbance of dissolved formazan was measured at 562 nm by a SpectraMax M3 microplate reader (Molecular Devices, Sunnyvale, Calif.).

For data set [2] the following is noted: cited from earlier work.
The test system of data set [3] is Huh7 cells. The data set is described as follows: Confocal imaging of cellular uptake. In kind it is cell-based, human. The following applies: 10 min, 3 h, 10 h, with or without chloroquine. How it is done:
Huh7 were seeded in a 35 mm glass-bottomed dish (Mat Tek Corp., Ashland, Mass.) at a density of 100,000 cells per dish. At 70% confluence, the cells were treated with free Dox for 10 min or fluorescently labeled liposomes (*LRD, labeled with 25-NBD cholesterol) for 10 min, 3 h or 10 h. At each time point, the cells were rinsed twice with PBS. After nuclei staining with Hoechst 33342 ([…]) for 10 min, the cells were rinsed again with PBS and imaged in medium by a Nikon-A1R confocal microscope (Nikon America Inc., Melville, N.Y.). For selected treatments, chloroquine was added 12 h prior to the treatment. The cells were rinsed with PBS and incubated with the labeled liposomes for confocal imaging.

For data set [4], the system named is Huh7 cells. The data set is described as follows: Cellular uptake of drug-loaded liposomes, quantitative analysis. The note with it: Huh7, 50 μM Dox equivalent; evident at 3, 6 and 12 h. The class given is cell-based, human. How it is done:
Huh7 Cells were seeded in a 12 well plate at a density of 10^5 cells per well. After overnight incubation, the cells were treated with LRHG, LRSG, or free Gem at a concentration equivalent to 50 μM Gem, or with LRD or free Dox at a concentration equivalent to 50 μM Dox. At 3, 6, 12, and 24 h post-treatment, the cells were rinsed twice with cold PBS, trypsinized and collected by centrifugation at 233 rcf. The cell pellets were suspended in PBS and lysed by three cycles of freezing and thawing followed by probe sonication. The protein content in each cell lysate was measured by micro BCA assay. A hundred microliters of cell lysate was mixed with 200 μL of acetonitrile, bath sonicated for 1 h, and centrifuged at 16100 rcf for 30 min to separate a supernatant. The supernatant was evaporated under vacuum overnight and reconstituted in 100 μL of PBS. Dox was detected by the microplate reader at λEx/λEm of 488 nm/580 nm. dFdCTP was detected by HPLC using a 64:36 v/v mixture of two aqueous mobile phases: (i) KH2PO4 10 mM, tetra butyl ammonium bromide (TBABr) 10 mM, pH 7 and 0.25% methanol and (ii) KH2PO4 250 mM, TBABr 10 mM, pH 7 and 15% methanol, run at 1.2 mL/min, and a detection wavelength of 271 nm.

The nature of data set [5]: pKa and ionization of drug. The following applies: internal pH 3.6. The class given is physicochemical.
The conditions of data set [6]: upon systemic administration; cited from earlier work.
The conditions of data set [7]: literature (Bornmann et al.); cited from earlier work.

In general, IC50 refers to the concentration needed to halve the response being measured. Low values mean higher potency, high ones lower potency. For orientation: pKa means the pH at which an ionisable group is half protonated. `COc1cccc2c1C(=O)c1c(O)c3c(c(O)c1C2=O)C[C@@](O)(C(=O)CO)C[C@@H]3O[C@H]1C[C@H](N)[C@H](O)[C@H](C)O1.Cl` [Dox, Doxorubicin HCl] showed an IC50 in data set [1] (72 h incubation) of 250 nM. For the same compound, the pKa in data set [2] is 8.68. In addition, the “cellular uptake and localisation by confocal microscope imaging” value in the data set with Huh7 cells [3] is reported as “appearing in the nuclei as early as in 10 min”. The “cellular uptake of Dox” value in the data set with Huh7 cells [4] is listed as “entering cells more efficiently than LRD”. Further, the “ionized/unionized ratio in the interior of liposomes” value in data set [5] is reported as 120,000.

The term half-life denotes how long it takes for the measured level to halve. In data set [1] (Homo sapiens, Huh-7, 72 h incubation), `Nc1ccn([C@@H]2O[C@H](CO)[C@@H](O)C2(F)F)c(=O)n1` [Gem, Gemcitabine] yielded a concentration for half-maximal inhibition (IC50) of 1600 nM. In addition, the half-life in data set [6] was 8 to 17 min. In addition, the “reported maximum tolerated dose” value in data set [7] was 16 mg/kg. The pKa in data set [2] is 3.6.

Values taken from patent publication US20220117895A1, “PREPARING LIPOSOMES WITH HIGH DRUG LOADING CAPACITY AND THE USE THEREOF” (Purdue Research Foundation, priority 2019, published 2022).
